This is an account of results in the NIST ThermoML archive (doi:10.1016/j.jct.2014.05.001).

Numbers after ± are expanded uncertainties.

The conditions of this data set: Ring tensiometer.

For the molecule `O` [water], the surface tension liquid-gas runs as follows: (298.15 K) 72 ± 0.9 mN/m; (303.15 K) 71.1 ± 0.9 mN/m; (308.15 K) 70.3 ± 0.9 mN/m; (313.15 K) 69.4 ± 0.9 mN/m.

Broadly, the surface tension liquid-gas is the work needed to enlarge the surface of a liquid by unit area.
